Experimental data reported in patent publication US20250332265A1, “PSMA TARGETED CONJUGATE COMPOUNDS AND USES THEREOF” (priority 2021, published 2025).
Values joined by “and” are separate entries in the source; they are usually repeats but may differ in a detail not shown here. Identical values can stand only once. Numbered stars: 1 amine (or outer) side, 2 acyl side, 3 side chain; on linkers, the order of the positions; unused ones are H or OH. Bridge positions count the residues as written; N and C are the ends. Square brackets hold non-standard residues; d marks the D form. Peptide text beside a SMILES is read from it. I, II: the chains in the order shown. * marks the point of attachment. ξ: configuration not given here. X4 = CN1/C(=C/C=C/C=C/C2=[N+](CCCCCC(=O)*)c3ccc4ccccc4c3C2(C)C)C(C)(C)c2c1ccc1ccccc21; Hexanoyl(6-succinimido-3yl) = O=C1CC([*:1])C(=O)N1CCCCCC(=O)[*:2]; X5 = CC[C@H](C)[C@@H]([C@H](CC(=O)[*:2])OC)N(C)[*:1]; Dolaproine = CO[C@@H]([C@@H]1CCCN1)[C@@H](C)C(=O)O; PABC = O=C(OCc1ccc(N[*:1])cc1)[*:2]; ξγGlu = O=C(O)C(CCC(=O)[*:2])N[*:1]; X1 = C[C@@H](N*)[C@@H](O)c1ccccc1; X3 = O=C(C1CCC(CN[*:1])CC1)[*:2]; Cit = NC(=O)NCCC[C@H](N)C(=O)O; NMeV = CN[C@H](C(=O)O)C(C)C; ξE = NC(CCC(=O)O)C(=O)O; CO = O=C([*:1])[*:2]; ξK = NCCCCC(N)C(=O)O; Ahx = NCCCCCC(=O)O; ξC = NC(CS)C(=O)O

How the values were obtained:
[1] = tested on: PSMA receptor expressed on the PC3pip cells; assay: In vitro cellular uptake studies, Example 1; type: cell-based, human; details: 50 nM, 4 hours
Procedure: PC3pip and PC3flu cells were seeded in p-Slide 8-Well Chamber Slide (ibidi GmbH) at 2,000 cells/well. When cells grew to 70% confluency, PSMA-1-VcMMAE-Cy5.5 or PSMA-1-McMMAE-Cy5.5 conjugations were added at 50 nM and incubated at 37° C. for 4 hours. Cells were washed with PBS and stained with DAPI and LysoOrange (Abcam) for 30 minutes at 37° and 5% CO2, after which they were washed again with PBS and filled with fresh medium. Selectivity was determined by including 20-fold excess of the PSMA-1 ligand. The uptake and localization of the drug conjugates were visualized under a Leica HyVolution SP8 confocal microscope at 40×.

human liver cathepsin B = target: T1, human liver cathepsin B (Homo sapiens, UniProt P07858); assay: Enzymatic cleavage by cathepsin B, Example 1; type: in vitro ADME; details: 2 μM conjugate, 37° C., HPLC
T1 construct: purchased Anthens Research and Technology; host or cells: human liver (tissue-derived enzyme)
Procedure: PSMA-1-VcMMAE-Cy5.5 or PSMA-1-McMMAE-Cy5.5 was added to 500 μL of activated human liver cathepsin B (Anthens Research and Technology) solution to a final concentration of 2 μM and incubated at 37° C. At different time intervals, 40 µL of the solution was taken out into tubes loaded with 1 μL of 1 mM E64 protease inhibitor. The mixture was vortexed and then stored at −80° C. for future HPLC analysis to assess degradation of PSMA-1-VcMMAE-Cy5.5 or PSMA-1-McMMAE-Cy5.5. Studies were performed in triplicate.

[2] = tested on: PSMA-negative PC3flu cells; assay: In vitro cytotoxicity assay (CCK-8), PC3flu; type: cell-based, human; details: 72 hours incubation, CCK-8
Procedure: (§1) Cells (1,000/well) were seeded in 96-well culture plates the day before treatment. Cells were incubated with various concentrations of drugs for 72 hours and cell viability evaluated by CCK-8 (Dojindo). The concentration required to reach 50% of cell proliferation was determined (IC50) by GraphPad Prism 3.0.

[3] = tested on: α-tubulin in PC3pip and PC3flu cells; assay: Immunofluorescence analysis of alpha-tubulin; type: cell-based, human; details: 5 nM, 24 hours
Procedure: Cells on coverslips at about 70% confluency were incubated with 5 nM of MMAE, PSMA-1-VcMMAE-Cy5.5 or PSMA-1-McMMAE-Cy5.5 for 24 hours. Cells were washed and fixed with 4% paraformaldehyde for 10 minutes, permeabilized with 0.1% Triton™ X-100 for 10 minutes, and blocked with 1% BSA for 1 hour at room temperature. Alpha-tubulin (B5-1-2) Alexa Fluor 488 Mouse Monoclonal Antibody (Invitrogen) was then added at 2 μg/mL in 0.1% BSA and incubated for 3 hours at room temperature. Cells were counterstained with DAPI, mounted with Fluor-Mount aqueous mounting solution, and observed under Leica DM4000B fluorescence microscopy at 40×.

[4] = tested on: PSMA-positive PC3pip cells; assay: In vitro cytotoxicity assay (CCK-8), PC3pip; type: cell-based, human
Procedure: as §1

PC3pip and PC3flu tumors = assay: In vivo NIR imaging studies, Example 1; design: species or system mice; details: 40 nmol/kg i.v., fluorescence imaging
Procedure: Under guidelines of the animal care and use committee at Case Western Reserve University (IACUC #150033) 6 to 8-week old male Balb/cathymic nude mice were implanted subcutaneously with 1×10^6 of PC3flu and PC3pip on the left and right dorsum respectively. Mice received 40 nmol/kg of PSMA-1-VcMMAE-Cy5.5 or PSMA-1-McMMAE-Cy5.5 in PBS via tail vein injection when tumors reached 10 mm in diameter. Fluorescence imaging was performed using the Maestro In Vivo Imaging system (Perkin-Elmer). Multispectral images were unmixed into their component spectra (PSMA probes, autofluorescence, and background) to quantitate the average fluorescence intensity associated with the tumors using regions of interest (ROIs) around the tumors.

[5] = Stability of conjugates incubated with PBS, Example 1; type: physicochemical; details: without enzyme
Procedure: To investigate if PSMA-targeted drug conjugates were cleavable by cathepsin B, the two conjugates were incubated with or without the enzyme and chromatographed by HPLC. When the conjugates were incubated with PBS, both PSMA-1-VcMMAE-Cy5.5 and PSMA-1-McMMAE-Cy5.5 were stable (FIG. 1D).

[6] = tested on: heterotopic PC3pip tumors; assay: Heterotopic survival study; type: in vivo, mice
Source text: Male athymic nude mice were implanted subcutaneously with 1×10^6 of PC3pip cells under the right dorsum of the mice. When tumor size reached approximately 100 mm^3 (tumor volume=Length×width^2/2), mice received drugs through tail vein injection. […] Animals were weighed and tumor size measured every other day for 90 days. Cures were defined as no tumor present at end of the 90-day study. When tumors became too large or animals were moribund they were euthanized. Five mice were used in each group.

orthotopic PC3pip tumors = assay: Orthotopic survival study; type: in vivo, mice; details: every four days, 5 doses
Procedure: Surgical orthotopic tumor implantation was performed as previously reported. Tumor growth/size was monitored using Siemens Acuson S2000 ultrasound scanner. When the tumors were at the appropriate size (5 mm as measured by ultrasound, approximately 2 weeks) animals were given PSMA-1-VcMMAE, PSMA-1-VcMMAE-Cy5.5, or PBS every four days with a total of 5 doses. Tumors were monitored every other day by ultrasound. Each group had five mice.

heterotopic C4-2 tumors = assay: Antitumor activity in heterotopic C4-2 tumors; type: in vivo, mice
Source text: To show versatility of the antitumor activity of PSMA-1-VcMMAE-Cy5.5, we tested it in mice bearing heterotopic C4-2 tumors, which are androgen-independent prostate cancer cells endogenously expressing PSMA.

SMILES | cellular binding and uptake, competition with PSMA-1 ligand [1] | cleavage by cathepsin B (human liver cathepsin B) | IC50 cytotoxicity, PC3flu cells [2] | disruption of α-tubulin network [3] | IC50 cytotoxicity, PC3pip cells ([4]; 72 hours incubation, CCK-8) | time of peak uptake in PC3pip tumors (PC3pip and PC3flu tumors) [h] | stability when incubated with PBS [5] | cure rate (no tumors at end of 90-day study) ([6]; 160 nmol/kg i.v. every 4 days, 5 doses) [%] | antitumor activity (tumor growth), words ([6]; 160 nmol/kg i.v. every four days, 5 doses) | tumor growth when given every 7 days ([6]; dosing every 7 days) | cure at day 90 (orthotopic PC3pip tumors) [%] | IC50 ([4]; 72 hours incubation, CCK-8) | effect of protease inhibitor E64 on cell killing ([4]; co-incubation with 50 μM E64) | cure rate (heterotopic C4-2 tumors) [%]
CC[C@H](C)[C@@H]([C@@H](CC(=O)N1CCC[C@H]1[C@H](OC)[C@@H](C)C(=O)N[C@H](C)[C@@H](O)c1ccccc1)OC)N(C)C(=O)[C@@H](NC(=O)[C@H](C(C)C)N(C)C(=O)CCCCCN1C(=O)CC(SC[C@H](NC(=O)[C@H](CCC(=O)O)NC(=O)[C@H](CCC(=O)O)NC(=O)[C@H](CCC(=O)O)NC(=O)CCCCCNC(=O)[C@H]2CC[C@H](CNC(=O)CC[C@H](NC(=O)N[C@@H](CCC(=O)O)C(=O)O)C(=O)O)CC2)C(=O)NCCCCCC(=O)N[C@@H](CCCCNC(=O)CCCCC[N+]2=C(/C=C/C=C/C=C3/N(C)c4ccc5ccccc5c4C3(C)C)C(C)(C)c3c2ccc2ccccc32)C(N)=O)C1=O)C(C)C (stereo partly drawn) [PSMA-1-McMMAE-Cy5.5] | selective and specific for the PSMA receptor | remained intact | no IC50 values could be obtained | no obvious disruption of tubulin | no IC50 values could be obtained | 24 | stable |  |  |  |  |  |  | 
CC[C@H](C)[C@@H]([C@H](CC(=O)N1CCC[C@H]1[C@H](OC)[C@@H](C)C(=O)N[C@H](C)[C@@H](O)c1ccccc1)OC)N(C)C(=O)[C@@H](NC(=O)[C@H](C(C)C)N(C)C(=O)OCc1ccc(NC(=O)[C@H](CCCNC(N)=O)NC(=O)[C@@H](NC(=O)CCCCCN2C(=O)CC(SCC(NC(=O)C(CCC(=O)O)NC(=O)C(CCC(=O)O)NC(=O)C(CCC(=O)O)NC(=O)CCCCCNC(=O)C3CCC(CNC(=O)CCC(NC(=O)NC(CCC(=O)O)C(=O)O)C(=O)O)CC3)C(=O)NCCCCCC(=O)NC(CCCCNC(=O)CCCCC[N+]3=C(/C=C/C=C/C=C4/N(C)c5ccc6ccccc6c5C4(C)C)C(C)(C)c4c3ccc3ccccc43)C(N)=O)C2=O)C(C)C)cc1)C(C)C (stereo partly drawn) [PSMA-1-VcMMAE-Cy5.5] (I: {ξE-CO-ξγGlu}-[X3][Ahx][ξE][ξE][ξE][ξC][Ahx][ξK](X4)-NH2 / II: V[Cit][PABC][NMeV]V[X5][Dolaproine]-X1; linker I:6-II:N via Hexanoyl(6-succinimido-3yl)) | selective and specific for the PSMA receptor |  |  | selective disruption of tubulin in PC3pip cells |  | 24 | stable | 60 | effectively inhibited tumor growth | greatly inhibited tumor growth | 40 | 0.84 nM and 0.75 nM | reduced the potency | 40
